Measured values reported in patent publication US20170121344A1 (Siga Technologies, Inc., priority 2009, published 2017).
Where two headings read alike, the source gives them in different places.

Tests used:
[1] = test system: Dengue-2 (Strain New Guinea C); assay: Viral yield assay against Dengue-2 in Vero cells; assay type: cell-based, Dengue virus; conditions: Dengue virus, read-out: Activity (EC50 in μM) DENV-2
Method in brief: (§1)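 Infect Vero cells with virus (MOI 0.1), add compound or DMSO, incubate at 37° C, collect progeny at 48 hours post infection, then titrate on Vero cells to obtain EC50.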

[2] = test system: DENV-1; assay: Viral yield assay against DENV-1 in Vero cells; assay type: cell-based; conditions: Dengue virus
Method in brief: as §1

[3] = test system: DENV-3; assay: Viral yield assay against DENV-3 in Vero cells; assay type: cell-based; conditions: Dengue virus
Method in brief: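 Vero cells were infected with dengue-2 at MOI 0.1, treated with compound (DMSO control), and kept at 37° C. They were harvested 48 hours post infection and yield was titered on Vero cells. EC50 came from the yield curve, and the other serotypes were run in a similar way.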

[4] = test system: DENV-4; assay: Viral yield assay against DENV-4 in Vero cells; assay type: cell-based; conditions: Dengue virus
Method in brief: as §1

[5] = DENV2, viral yield assay, Vero cells, MOI 0.1, 48 hours post infection

| SMILES | EC50 [1, 5] | EC50 ([2]; DENV1, viral yield assay) | EC50 ([3]; DENV3, viral yield assay) | EC50 ([4]; DENV4, viral yield assay) | EC50 ([1]; DENV2, Vero cells) | EC50 ([2]; DENV1) | EC50 ([3]; DENV3) | EC50 ([4]; DENV4) | EC50 ([1]; DENV2, Vero, 48 h) |
| --- | --- | --- | --- | --- | --- | --- | --- | --- | --- |
| Cc1ccc(-c2ccc3c(N)c(C(=O)Nc4ccccc4Cl)sc3n2)cc1 [Compound 650, 3-amino-N-(2-chlorophenyl)-6-(p-tolyl) thieno[2,3-b]pyridine-2-carboxamide] | < 5 µM | < 5 µM | < 5 µM | < 5 µM |  |  |  |  |  |
| COc1cccc(-c2ccc3c(N)c(C(=O)Nc4ccccc4SCC(C)C)sc3n2)c1 [Compound 571, 3-amino-N-(2-isobutylsulfanylphenyl)-6-(3-methoxyphenyl)thieno[2,3-b] pyridine-2-carboxamide] | < 5 µM | < 5 µM | < 5 µM | < 5 µM |  |  |  |  |  |
| Nc1c(C(=O)Nc2ccc(Br)cc2)sc2nc(-c3ccc(Cl)cn3)ccc12 [Compound 349, 3-amino-N-(4-bromophenyl)-6-(5-chloro-2-pyridyl)thieno [2,3-b]pyridine-2-carboxamide] | < 5 µM | < 5 µM | < 5 µM | < 5 µM |  |  |  |  |  |
| NCC(=O)Nc1c(C(=O)Nc2nnc(-c3ccccc3)s2)sc2nc(Cl)ccc12 [Compound 361, 3-[(2-aminoacetyl)amino]-6-chloro-N-(5-phenyl-1,3,4-thiadiazol-2-yl)thieno[2,3-b]pyridine-2-carboxamide] |  |  |  |  | < 5 µM | < 5 µM | < 5 µM | > 25 µM |  |
| CNc1c(C(=O)Nc2nnc(-c3ccccc3)s2)sc2nc3c(cc12)CCCCC3 [Compound 359, 3-(methylamino)-N-(5-phenyl-1,3,4-thiadiazol-2-yl)-6,7,8,9-tetrahydro-5H-cyclohepta[b]thieno[3,2-e]pyridine-2-carboxamide] |  |  |  |  | < 5 µM | < 5 µM | > 25 µM | 5 to 25 µM |  |
| COC(=O)c1ccc(NC(=O)c2sc3nc(-c4ccc(Cl)cc4)ccc3c2N)cc1 [Compound 645, methyl 4-[[3-amino-6-(4-chlorophenyl)thieno[2,3-b]pyridine-2-carbonyl]amino]benzoate] | < 5 µM | < 5 µM | < 5 µM | < 5 µM |  |  |  |  |  |
| COc1ccc(-c2ccc3c(N)c(C(=O)Nc4cc(Cl)ccc4Cl)sc3n2)cc1OC [Compound 575, 3-amino-N-(2,5-dichlorophenyl)-6-(3,4-dimethoxyphenyl)thieno[2,3-b]pyridine-2-carboxamide] | < 5 µM | < 5 µM | < 5 µM | < 5 µM |  |  |  |  |  |
| Nc1c(C(=O)Nc2ccc(F)c(F)c2)sc2nc(-c3ccc(F)cc3)ccc12 [Compound 615, 3-amino-N-(3,4-difluorophenyl)-6-(4-fluorophenyl)thieno[2,3-b]pyridine-2-carboxamide] | < 5 µM | < 5 µM | < 5 µM | < 5 µM |  |  |  |  |  |
| Nc1c(C(=O)Nc2ccc(F)cc2F)sc2nc(-c3cccs3)ccc12 [Compound 471, 3-amino-N-(2,4-difluorophenyl)-6-(2-thienyl)thieno[2,3-b]pyridine-2-carboxamide] | < 5 µM | < 5 µM | < 5 µM | < 5 µM |  |  |  |  |  |
| Nc1c(C(=O)Nc2cccc(F)c2)sc2nc(-c3cccs3)ccc12 [Compound 464, 3-amino-N-(3-fluorophenyl)-6-(2-thienyl)thieno[2,3-b]pyridine-2-carboxamide] | < 5 µM | < 5 µM | < 5 µM | < 5 µM |  |  |  |  |  |
| Nc1c(C(=O)N(CCC(=O)O)c2ccc(Br)cc2)sc2nc(-c3ccc(Cl)cc3)ccc12 [Compound 350, 3-(N-[3-amino-6-(4-chloro-phenyl)thieno [2,3-b]pyridine-2-carbonyl]-4-bromoanilino) propanoic acid] | < 5 µM | < 5 µM | < 5 µM | < 5 µM |  |  |  |  |  |
| O=C(Nc1c(C(=O)Nc2nnc(-c3ccccc3)s2)sc2nc3c(cc12)CCCCC3)c1cccnc1 [Compound 297, 3-(nicotinamido)-N-(5-phenyl-1,3,4-thiadiazol-2-yl)-6,7,8,9-tetrahydro-5H-cyclohepta[b]thieno[3,2-e]pyridine-2-carboxamide] |  |  |  |  | < 5 µM | < 5 µM | < 5 µM | < 5 µM |  |
| COc1ccc(-c2ccc3c(N)c(C(=O)Nc4ccccc4Br)sc3n2)cc1 [Compound 468, 3-amino-N-(2-bromophenyl)-6-(4-methoxyphenyl)thieno[2,3-b]pyridine-2-carboxamide] | < 5 µM | < 5 µM | < 5 µM | < 5 µM |  |  |  |  |  |
| COc1ccc(NC(=O)c2sc3nc(-c4cccc(OC)c4)ccc3c2N)cc1 [Compound 506, 3-amino-6-(3-methoxyphenyl)-N-(4-methoxyphenyl)thieno[2,3-b]pyridine-2-carboxamide] | < 5 µM | < 5 µM | < 5 µM | < 5 µM |  |  |  |  |  |
| COc1ccc(-c2ccc3c(N)c(C(=O)Nc4ccc(F)cc4)sc3n2)cc1 [Compound 491, 3-amino-N-(4-fluorophenyl)-6-(4-methoxyphenyl)thieno[2,3-b]pyridine-2-carboxamide] |  | > 25 µM | 5 to 25 µM | < 5 µM |  |  |  |  | < 5 µM |
| COc1cc(NC(=O)c2sc3nc(-c4cccs4)ccc3c2N)cc(OC)c1OC [Compound 473, 3-amino-6-(2-thienyl)-N-(3,4,5-trimethoxyphenyl)thieno[2,3-b]pyridine-2-carboxamide] |  | < 5 µM | < 5 µM | < 5 µM |  |  |  |  | < 5 µM |
| COc1ccc(-c2ccc3c(N)c(C(=O)Nc4cccc(Br)c4)sc3n2)cc1 [Compound 454, 3-amino-N-(3-bromophenyl)-6-(4-methoxyphenyl)thieno[2,3-b]pyridine-2-carboxamide] | < 5 µM | < 5 µM | < 5 µM | < 5 µM |  |  |  |  |  |
| O=C(O)CC(=O)Nc1c(C(=O)Nc2nnc(-c3ccccc3)s2)sc2nc3c(cc12)CCCCC3 [Compound 295, 3-oxo-3-((2-((5-phenyl-1,3,4-thiadiazol-2-yl)carbamoyl)-6,7,8,9-tetrahydro-5H-cyclohepta[b]thieno[3,2-e]pyridin-3-yl)amino)propanoic acid] |  |  |  |  | < 5 µM | < 5 µM | < 5 µM | < 5 µM |  |
| CCc1cccc(NC(=O)c2sc3nc(-c4ccc(F)cc4)ccc3c2N)c1 [Compound 609, 3-amino-N-(3-ethylphenyl)-6-(4-fluorophenyl)thieno[2,3-b]pyridine-2-carboxamide] | < 5 µM | < 5 µM | 5 to 25 µM | 5 to 25 µM |  |  |  |  |  |
| NCCNc1c(C(=O)Nc2cccc(C(F)(F)F)c2)sc2nc(-c3cccs3)ccc12 [Compound 304, 3-(2-aminoethylamino)-6-(2-thienyl)-N-[3-(trifluoromethyl)phenyl]thieno[2,3-b]pyridine-2-carboxamide] |  |  |  |  | < 5 µM | < 5 µM | < 5 µM | < 5 µM |  |
| Nc1c(C(=O)Nc2ccc(Br)cn2)sc2nc(-c3ccc(Cl)cc3)ccc12 [Compound 335, 3-amino-N-(5-bromo-2-pyridyl)-6-(4-chlorophenyl)thieno [2,3-b]pyridine-2-carboxamide] | < 5 µM | < 5 µM | < 5 µM | < 5 µM |  |  |  |  |  |
| CC(=O)Nc1c(C(=O)Nc2nnc(-c3ccccc3)s2)sc2nc3c(cc12)CCCCC3 [Compound 358, 3-acetamido-N-(5-phenyl-1,3,4-thiadiazol-2-yl)-6,7,8,9-tetrahydro-5H-cyclohepta[b]thieno[3,2-e]pyridine-2-carboxamide] |  |  |  |  | < 5 µM | < 5 µM | 5 to 25 µM | > 25 µM |  |
| Nc1c(C(=O)Nc2nnc(-c3ccccc3)s2)sc2nc(-c3cccs3)ccc12 [Compound 488, 3-amino-N-(5-phenyl-1,3,4-thiadiazol-2-yl)-6-(2-thienyl)thieno[2,3-b]pyridine-2-carboxamide] | < 5 µM | < 5 µM | < 5 µM | < 5 µM |  |  |  |  |  |
| NCCNc1c(C(=O)Nc2nnc(-c3ccccc3)s2)sc2nc3c(cc12)CCCCC3 [Compound 294, 3-((2-aminoethyl)amino)-N-(5-phenyl-1,3,4-thiadiazol-2-yl)-6,7,8,9-tetrahydro-5H-cyclohepta[b]thieno[3,2-e]pyridine-2-carboxamide] |  |  |  |  | < 5 µM | < 5 µM | < 5 µM | < 5 µM |  |
| Nc1c(C(=O)Nc2ccc(OC(F)(F)F)cc2)sc2nc(-c3cccc(OC(F)(F)F)c3)ccc12 [Compound 332, 3-amino-6-[3-(trifluoromethoxy)phenyl]-N-[4-(trifluoromethoxy)phenyl]thieno[2,3-b]pyridine-2-carboxamide] | < 5 µM | < 5 µM | < 5 µM | < 5 µM |  |  |  |  |  |
| O=C(O)CN(CC(=O)O)c1c(C(=O)Nc2cccc(C(F)(F)F)c2)sc2nc(-c3cccs3)ccc12 [Compound 363, 2-[carboxymethyl-[6-(2-thienyl)-2-[[3-(trifluoromethyl)phenyl]carbamoyl]thieno[2,3-b]pyridin-3-yl]amino]acetic acid] |  |  |  |  | < 5 µM | 5 to 25 µM | > 25 µM | > 25 µM |  |
| Nc1c(C(=O)Nc2ccc(Cl)cn2)sc2nc(-c3ccc(Cl)cc3)ccc12 [Compound 352, 3-amino-6-(4-chlorophenyl)-N-(5-chloro-2-pyridyl)thieno [2,3-b]pyridine-2-carboxamide] | < 5 µM | < 5 µM | < 5 µM | < 5 µM |  |  |  |  |  |
